Molecules are shown by their SMILES.

Usually Ki stands for a dissociation constant, usually derived from enzyme kinetics or from competition with a known ligand. What is called IC50 is the concentration at which inhibition is half-maximal. Low readings indicate higher potency, high ones lower potency.

In the test the target is T1, Tissue alpha-L-fucosidase (Bos taurus, UniProt Q2KIM0).
T1 sequence (Q2KIM0 whole entry): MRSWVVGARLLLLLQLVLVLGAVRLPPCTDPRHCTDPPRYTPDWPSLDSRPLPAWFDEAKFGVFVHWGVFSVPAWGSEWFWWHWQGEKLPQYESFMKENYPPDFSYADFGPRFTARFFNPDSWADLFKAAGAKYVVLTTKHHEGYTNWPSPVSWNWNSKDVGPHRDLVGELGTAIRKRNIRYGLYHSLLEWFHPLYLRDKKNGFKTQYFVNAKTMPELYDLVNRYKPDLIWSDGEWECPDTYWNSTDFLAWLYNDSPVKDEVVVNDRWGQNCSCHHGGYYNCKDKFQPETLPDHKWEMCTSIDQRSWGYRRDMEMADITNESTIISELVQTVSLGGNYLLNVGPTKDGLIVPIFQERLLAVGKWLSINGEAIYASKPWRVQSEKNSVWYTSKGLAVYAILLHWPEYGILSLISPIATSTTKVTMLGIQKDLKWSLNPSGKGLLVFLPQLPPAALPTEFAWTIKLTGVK
In words: Inhibition of bovine alpha-L-fucosidase.
On to `C[C@H]1N[C@@H](S(=O)(=O)O)[C@H](O)[C@@H](O)[C@H]1O`, for which affinity was put at a Ki of 13000 nM.

Compound `C[C@@H]1N[C@H](S(=O)(=O)O)[C@@H](O)[C@H](O)[C@@H]1O` came in with a Ki of 1 nM.

In the case of `C[C@@H]1NC[C@@H](O)[C@H](O)[C@@H]1O` [DEOXYFUCONOJIRIMYCIN], the IC50 amounted to 5 nM and the Ki worked out at 3 nM.

`C[C@H]1NC(O)[C@H](O)[C@@H](O)[C@H]1O` (some centres not stated) had a Ki of 3000 nM.

Regarding `C[C@H]1NC[C@H](O)[C@@H](O)[C@H]1O`, the Ki is 660000 nM.

With `C[C@@H]1NC(O)[C@@H](O)[C@H](O)[C@@H]1O` (some centres not stated), the Ki stood at 1 nM.

The values are drawn from ChEMBL document CHEMBL1138167, “Asymmetric synthesis of the L-fuco-nojirimycin, a nanomolar alpha-L-fucosidase inhibitor” (Bioorg Med Chem Lett, 2006).
